Measurements reported in ChEMBL document CHEMBL1144554, “In vitro cytotoxicity evaluation of some substituted isatin derivatives” (Bioorg Med Chem, 2007).
The source made the active and inactive calls. No cut-off for these calls is given here.

Columns and labels:
MCF7 = test: Cytotoxicity against human MCF7 cells; assay type: cell-based
HCT-116 = test: Cytotoxicity against human HCT116 cells; assay type: cell-based
PC-3 = test: Cytotoxicity against human PC3 cells; assay type: cell-based
MDA-MB-231 = test: Cytotoxicity against human MDA-MB-231 cells; assay type: cell-based
Jurkat = test: Cytotoxicity against human Jurkat cells; assay type: cell-based
U-937 = test: Cytotoxicity against human U937 cells; assay type: ADME, cell-based
Caspase-7 (Homo sapiens) = biological target: T1, Caspase-7 (Homo sapiens) (UniProt P55210); test: Activation of caspase 7 in Jurkat cells after 5 hrs by apoptosis assay; assay type: cell-based
T1 sequence (whole entry): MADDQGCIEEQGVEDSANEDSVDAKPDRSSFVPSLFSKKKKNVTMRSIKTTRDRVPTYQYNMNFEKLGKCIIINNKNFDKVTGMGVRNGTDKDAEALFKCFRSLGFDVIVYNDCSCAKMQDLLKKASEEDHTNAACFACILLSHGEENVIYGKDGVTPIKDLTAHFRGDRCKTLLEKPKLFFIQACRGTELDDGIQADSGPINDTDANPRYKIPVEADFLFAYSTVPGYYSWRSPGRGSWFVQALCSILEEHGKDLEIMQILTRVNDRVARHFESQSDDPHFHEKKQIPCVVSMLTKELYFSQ

Caspase-3 (Homo sapiens) = biological target: T2, Caspase-3 (Homo sapiens) (UniProt P42574); test: Activation of caspase 3 in Jurkat cells after 5 hr by apoptosis assay; assay type: cell-based
T2 sequence (whole entry): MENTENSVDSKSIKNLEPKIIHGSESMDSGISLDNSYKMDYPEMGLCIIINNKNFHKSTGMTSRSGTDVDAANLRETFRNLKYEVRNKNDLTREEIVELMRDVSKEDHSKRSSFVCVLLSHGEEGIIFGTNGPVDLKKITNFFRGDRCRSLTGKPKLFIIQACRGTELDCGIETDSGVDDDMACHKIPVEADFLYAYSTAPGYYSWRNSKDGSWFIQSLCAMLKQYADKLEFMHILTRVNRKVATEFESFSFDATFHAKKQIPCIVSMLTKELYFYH

[1] = biological target: Cyclin-dependent kinase 2 (Homo sapiens) (UniProt P24941); test: Inhibition of CDK2 at 100 uM

Structure (SMILES)	IC50 (U-937)	further results
O=C1Nc2cc(Br)c(Br)cc2C1=O	11.6 µM	IC50 (MCF7): 20.2 µM; IC50 (HCT-116): 37.3 µM; IC50 (PC-3): 41 µM; IC50 (MDA-MB-231): 41.7 µM; IC50 (Jurkat): 20.2 µM
O=C1Nc2c(I)cc(I)cc2C1=O	7.85 µM	IC50 (MCF7): 18.4 µM; IC50 (HCT-116): 24 µM; IC50 (PC-3): 71.9 µM; IC50 (MDA-MB-231): 41.8 µM; IC50 (Jurkat): 20.9 µM
O=C1Nc2c(cc(Br)c(Br)c2Br)C1=O	6.76 µM	Activity (Caspase-7 (Homo sapiens)): Active; IC50 (MCF7): 13.3 µM; IC50 (HCT-116): 15.9 µM; IC50 (PC-3): 25.9 µM; IC50 (MDA-MB-231): 21.8 µM; IC50 (Jurkat): 5.8 µM; Activity (Caspase-3 (Homo sapiens)): Active
Oc1[nH]c2ccccc2c1/N=N/c1ccccc1	> 211 µM	
O=C1Nc2c(Br)cc(Br)cc2/C1=N/c1ccccc1	13.7 µM	
O=C1Nc2cc(Br)ccc2C1=O	74.8 µM	
O=C1Nc2c(cc(Br)cc2[N+](=O)[O-])C1=O	257 µM	
O=C1Nc2c(Br)cccc2C1=O	83 µM	
O=C1Nc2ccc(F)cc2C1=O [5-FLUOROISATIN]	98.4 µM	
O=C1Nc2ccc(Br)cc2C1=O	64.5 µM	
O=C1Nc2ccc(I)cc2C1=O [5-IODOISATIN]	53.4 µM	
O=C1Nc2cccc(Br)c2C1=O	214 µM	
COc1ccc2c(c1)C(=O)C(=O)N2 [5-METHOXYISATIN]	420 µM	
O=C1Nc2cc(Br)c([N+](=O)[O-])cc2C1=O	17.1 µM	
O=C1Nc2c(Br)cc([N+](=O)[O-])cc2C1=O	> 369 µM	
O=C1Nc2c(Br)cc(Br)cc2C1=O		inhibition [1]: 44%
CN1C(=O)C(=O)c2ccccc21	238 µM	
O=C1Nc2ccc([N+](=O)[O-])cc2C1=O [5-NITROISATIN]	132 µM	
O=C1Nc2ccccc2C1=O [ISATIN]	565 µM	
